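Briefly, cells in 96-well plates were exposed to five compound concentrations for 48 h, and endpoints were estimated by linear interpolation. TGI: concentration producing complete growth inhibition.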
Experiments:
Assay in all cases: DTP human tumour cell line panel, 48 h
[1] = test system: 786-0 renal
[2] = test system: HCT-116 colon
[3] = test system: HOP-62 NSCLC
[4] = test system: HS 578T breast
[5] = test system: NCI/ADR-RES ovarian
[6] = test system: OVCAR-3 ovarian
[7] = test system: SF-539 CNS
[8] = test system: SK-MEL-2 melanoma
[9] = test system: SN12C renal
[10] = test system: SW-620 colon
[11] = test system: CCRF-CEM leukemia
[12] = test system: RPMI-8226 leukemia

Structure (SMILES) | TGI [1] [µM] | TGI [2] [µM] | TGI [3] [µM] | TGI [4] [µM] | TGI [5] [µM] | TGI [6] [µM] | TGI [7] [µM] | TGI [8] [µM] | TGI [9] [µM] | TGI [10] [µM] | TGI [11] [µM] | TGI [12] [µM]
CC1=C[P+](c2ccccc2)(c2ccccc2)c2ccccc2O1 | > 100 | 16.9 | 59 | 11.6 | > 100 | 9.4 | 31.3 | 94.6 | 5.29 | > 100 |  | 
CC(C)(C)OC(=O)NC(CSCc1ccc(C(=O)c2ccccc2)cc1)C(=O)N1CCN(CCCCN2c3ccccc3Sc3cc(N=[N+]=[N-])ccc32)CC1 (stereo not drawn) | > 100 | > 100 | > 100 | > 100 | > 100 | > 100 | > 100 | > 100 | > 100 | > 100 | > 100 | 
CCC1c2[nH]c3ccccc3c2C[C@H]2C(=O)NC(C)C(=O)N12 (stereo partly drawn) | > 100 | > 100 | > 100 | > 100 | > 100 | > 100 |  | > 100 | > 100 | > 100 |  | > 100
Cc1nc2c(Cl)cc(Cl)cc2c2c1CCO2 | > 100 | > 100 |  | > 100 | > 100 |  | > 100 | > 100 | > 100 | > 100 | > 100 | > 100
N=C1OC(CN2CCN(c3ccccc3)CC2)CN1C(=O)Nc1ccccc1 (stereo not drawn) | > 100 | > 100 | > 100 | > 100 | > 100 |  |  | > 100 | > 100 | > 100 | > 100 | > 100
O=C(CC(C(=O)c1ccsc1)c1cccs1)c1ccccc1 (stereo not drawn) | > 100 | > 100 | > 100 | > 100 |  | > 100 | > 100 |  | > 100 | > 100 | > 100 | > 100
CC1[C@@]2(O[C@@H]3C=C4C5CCC6Cc7nc8c(nc7C[C@@]6(C)C5C[C@H](O)[C@@]4(C)[C@]13O)CC1CCc3c(cc4c5c3C(O)C[C@H]5[C@@H](C)C3(O4)OC(C)(C)CC3O)[C@]1(C)C8)O[C@@](C)(CO)C[C@@H]2O (stereo partly drawn) |  | > 3.72 | 0.263 |  | > 3.72 | > 3.72 | > 3.72 | > 3.72 | > 3.72 | 1.1 | > 3.72 | 0.21
CCC1(O)C(=O)OCc2c1cc1n(c2=O)Cc2cc3cc4c(cc3nc2-1)OCO4 (stereo not drawn) | 0.102 | 0.108 | < 0.0198 | > 100 | 0.0277 | 0.589 |  | 2.01 | 4.1 | 18.7 |  | 7
N=c1oc2ccc3ccccc3c2cc1-c1nc2ccccc2c(=O)[nH]1 | > 100 | > 100 | 45.4 | 87.6 | > 100 |  | > 100 | 31.8 | > 100 | > 100 |  | > 100
COc1ccc(C2=C(OC(C)=O)c3cccn3-c3ccc(Cl)cc3S2)cc1 | > 10 |  | > 10 |  |  |  |  |  | > 10 | > 10 | > 10 | 6.21
CCN(CC)CCC(=O)/C=C/c1ccc(Cl)c(Cl)c1 | > 10 | 3.74 | > 10 |  | 4.66 | > 10 |  | > 10 | 4.24 | 5.63 | 7.18 | 0.603
COC(=O)c1csc(-c2csc(CCNC(=O)OC(C)(C)C)n2)n1 | > 100 | > 100 | > 100 | > 100 | > 100 | > 100 | > 100 |  | > 100 | > 100 | > 100 | > 100
O=C1OC(C(O)CO)C(C(O)CO)OC1=O (stereo not drawn) | > 10 |  | > 10 | > 10 | > 10 | > 10 | > 10 |  | > 10 | > 10 | > 10 | > 10
O=c1cc(NNc2ccccc2)[nH]c(=O)[nH]1 | 29.6 | 32.6 | > 100 | > 100 | 67.9 | 30.9 | > 100 |  | 49.4 |  | > 100 | 59.9
O=C(COc1cc(=O)oc2ccccc12)c1ccccc1 | > 100 | 32 | > 100 | 73.7 |  | 39.9 | 58.7 | > 100 | > 100 | > 100 | > 100 | > 100
O=C1C=C(NCCc2ccc(O)c([N+](=O)[O-])c2)C(=O)c2[nH]cnc21 | > 100 | > 100 | > 100 | > 100 | > 100 | 46.1 | 90.5 | 51.1 | > 100 | > 100 |  | > 100
O=[N+]([O-])c1ccc(C[P+]2(c3ccccc3)CCCCC2)cc1 (tested in a mixture with another compound) | > 100 |  | > 100 |  |  | > 100 | > 100 | > 100 | > 100 | > 100 | > 100 | > 100
Cc1ccc([N+](=O)[O-])cc1S(=O)(=O)Nc1ccc(C2=NN(S(=O)(=O)c3cc([N+](=O)[O-])ccc3C)C(c3cccs3)C2)cc1 (stereo not drawn) | > 100 | 77 | > 100 | 53.7 | > 100 | 52.6 |  | 69.2 | > 100 | > 100 |  | 67.6
CC1OC(NCCNCCNC2OC(C)C(O)C(O)C2O)C(O)C(O)C1O (stereo not drawn) | > 100 | > 100 | > 100 | > 100 | > 100 | > 100 | > 100 | > 100 | > 100 | > 100 |  | > 100
CC1=C(C)C(=O)OC(C(C)(O)C2(O)CC3OC34C3CC(O)C56OC5C=CC(=O)C6(C)C3CCC42C)C1 (stereo not drawn) |  |  | 35.4 | 16.3 |  | 6.23 | 6.39 | 10.8 | 14.4 |  | > 22.2 | 5.34

Reference: PubChem BioAssay (NCI)
